≈ marks a conversion by molar mass, not a printed value.
Assays:
Type in all cases: cell-based
Candida albicans = experiment: Fungal growth inhibition zone assay, Candida albicans
Experimental: (§1) In addition to the tests described above, the effects of selected compounds of the general formula 2 on growth of bacteria, one yeast (Candida albicans) and one fungus (Helminthosporium sp.) were assessed. Bacteria were grown in liquid media in the presence of different concentrations of furanones and growth measured via changes in optical density (OD). Fungal assays were done by inoculating agar plates with spores. These plates contained different concentrations of furanone compounds in wells within the plates. Zones of inhibition around these wells were measured after 48 hours.

Helminthosporium sp. = experiment: Fungal growth inhibition zone assay, Helminthosporium sp.
Experimental: as §1

Serratia liquefaciens [1] = experiment: Serratia liquefaciens swarming assay; conditions: 5-100 μg/ml in LB agar (0.7%) plates
Experimental: (§2) Serratia liquefaciens was grown in liquid LB medium at room temperature to an optical density of 0.3 at 450 nm and stable inoculated onto LB agar (0.7% agar) plates. Plates were incubated at 30° C. and observed regularly for swarming behaviour. The effect on swarming of furanone compounds was tested by adding (after sterilisation and cooling of the agar) compounds 1-13 (FIG. 3). in the concentration range of 5-100 μg/ml, to the plates.

Serratia liquefaciens [2] = experiment: Growth of Serratia liquefaciens in liquid LB medium; conditions: 100 μg/ml
Experimental: (§3) The effect on growth of Serratia liquefaciens by furanone compounds was also measured in liquid LB medium by comparing growth of cultures without the addition of compounds versus growth of cultures with added furanone compounds (100 μg/ml of compounds 1-13 (FIG. 3) in separate cultures). Growth was measured as optical density at 450 nm and followed over a 48 hr period.

[3] = system: Chromobacterium violencia mutant negative for the HSL auto inducer; experiment: Chromobacterium violencia (indigo) assay; conditions: for Effect on HSL phenotype: indigo formation: Chromobacterium violencia, 100 μg/ml; for Stimulation of indigo production by the compound itself: indigo negative Chromobacterium violencia mutant, addition of compound
Experimental: (§4) A mutant of Chromobacterium violencia negative for the HSL auto inducer was used in the assay. The strain was pour plated in LB medium at high density and wells were punched after the media had set. Sterile, filtered supernatants from various HSL producing strains were added to the wells. Plates were incubated at 30° C. and observed for the formation of purple zones (due to […]) around the wells. The effects of furanone compounds 1 and 2 (FIG. 3) were assessed by running this assay on plates of LB medium containing furanone compounds at a concentration of 100 μg/ml. The effects of the compounds on growth of Chromobacterium were assessed as above.

[4] = system: Chromobacterium violencia; experiment: Growth of Chromobacterium violencia; conditions: 100 μg/ml
Experimental: as §3, §4

Pseudomonas aeruginosa [5] = experiment: Pseudomonas aeruginosa (elastase) assay; conditions: 100 μg/ml in elastin agar
Experimental: (§5) Inoculants from precultures were streaked onto Peptone-Tryptic Soy Broth agar containing 0.3% elastin. Plates were incubated at 37° C. and observed for hydrolysis of the elastin. The effect of furanone compounds was assess by adding compounds 1-4 (100 μg/ml) to the plates and comparing zones of hydrolysis in plates with and without the compounds.

Vibrio fisheri [6] = experiment: Vibrio fisheri bioluminescence assay; conditions: 100 μg/ml, visual inspection of agar plates
Experimental: (§6) Initial assays for both strains of Vibrio were streaked onto LB agar plates (with 2% NaCl) with and without furanone compounds 1-4 at 5-100 μg/ml. Bioluminescence of the plates was visually assessed after 24 hours of incubation at room temperature. In subsequent assays, both strains were grown in liquid culture in the presence of furanones. Bioluminescence was assayed via a luminometer. The effects of furanones on growth of both strains were assayed as above.

Vibrio harveyi [7] = experiment: Vibrio harveyi bioluminescence assay; conditions: 100 μg/ml, visual inspection of agar plates
Experimental: as §6

Vibrio fisheri [8] = experiment: Growth of Vibrio fisheri
Experimental: as §3, §6

Vibrio harveyi [9] = experiment: Growth of Vibrio harveyi
Experimental: as §3, §6

strain R12 [10] = experiment: Marine isolate swimming, strain R12
strain R12 [11] = experiment: Marine isolate growth in liquid media, strain R12
Experimental: as §3
(§7) Methods followed those described for Serratia liquefaciens (above). Inhibition of growth of these bacteria by furanones was assessed as above.

strain R12 [12] = experiment: Marine isolate swarming, strain R12
Experimental: as §2, §7

strain R86 [13] = experiment: Marine isolate swimming, strain R86
strain R86 [14] = experiment: Marine isolate growth in liquid media, strain R86
Experimental: as §3, §7

strain R86 [15] = experiment: Marine isolate swarming, strain R86
Experimental: as §2, §7

strain R130 [16] = experiment: Marine isolate swimming, strain R130
strain R130 [17] = experiment: Marine isolate growth in liquid media, strain R130
Experimental: as §3, §7

strain R130 [18] = experiment: Marine isolate swarming, strain R130
Experimental: as §2, §7

strain V21 [19] = experiment: Marine isolate swimming, strain V21
strain V21 [20] = experiment: Marine isolate growth in liquid media, strain V21
Experimental: as §3, §7

strain V21 [21] = experiment: Marine isolate swarming, strain V21
Experimental: as §2, §7

strain V54 [22] = experiment: Marine isolate swimming, strain V54
strain V54 [23] = experiment: Marine isolate growth in liquid media, strain V54
Experimental: as §3, §7

strain V54 [24] = experiment: Marine isolate swarming, strain V54
Experimental: as §2, §7

strain V55 [25] = experiment: Marine isolate swimming, strain V55
strain V55 [26] = experiment: Marine isolate growth in liquid media, strain V55
Experimental: as §3, §7

strain V55 [27] = experiment: Marine isolate swarming, strain V55
Experimental: as §2, §7

Pseudomonas aeruginosa [28] = experiment: Growth of Pseudomonas aeruginosa on plates; conditions: 100 μg/ml
Experimental: as §5

Compound | width of inhibition zone (Candida albicans; amount added 0.1 μg) | width of inhibition zone (Candida albicans; amount added 1 μg) | width of inhibition zone (Candida albicans; amount added 10 μg) | width of inhibition zone (Candida albicans; amount added 100 μg) | width of inhibition zone (Helminthosporium sp.; amount added 0.1 μg) [mm] | width of inhibition zone (Helminthosporium sp.; amount added 1 μg) | width of inhibition zone (Helminthosporium sp.; amount added 10 μg) | width of inhibition zone (Helminthosporium sp.; amount added 100 μg) | Effect on HSL phenotype: swarming (Serratia liquefaciens [1]) | Effect on bacterial growth (Serratia liquefaciens [2]) | Effect on HSL phenotype: indigo formation [3] | Stimulation of indigo production by the compound itself [3] | Effect on bacterial growth [4] | Effect on HSL phenotype: elastase (Pseudomonas aeruginosa [5]) | Effect on HSL phenotype: luminescence (Vibrio fisheri [6]) | Effect on HSL phenotype: luminescence (Vibrio harveyi [7]) | Effect on bacterial growth (Vibrio fisheri [8]) | Effect on bacterial growth (Vibrio harveyi [9]) | Minimum inhibitory concentration, Swimming (strain R12 [10]) [µg/mL] | Minimum inhibitory concentration, Growth (strain R12 [11]) [µg/mL] | also measured
CCCC(OC(C)=O)C1=C(Br)C(=CI)OC1=O (stereo not drawn) [Compound 5] | 0 mm | 0 mm | 1 mm | 3-8 mm | 0 | 2-4 mm | 9-13 mm | 20 mm |  |  |  |  |  |  |  |  |  |  |  |  | 
CCCCC1=C(Br)C(=C(Br)Br)OC1=O [Compound 1] | 0 mm | 0 mm | 0 mm | 1-2 mm | 0 | 0 mm | 2-5 mm | 20 mm | inhibit | no effect | inhibit | do not stimulate | no effect | stimulated | inhibit | inhibit | no effect | no effect | >50 | >50 | Minimum inhibitory concentration, Swarming (strain R12 [12]): 5 µg/mL (≈ 12.9 µM); Minimum inhibitory concentration, Swimming (strain R86 [13]): 50 µg/mL (≈ 129 µM); Minimum inhibitory concentration, Growth (strain R86 [14]): >50 µg/mL; Minimum inhibitory concentration, Swarming (strain R86 [15]): 25 µg/mL (≈ 64.3 µM); Minimum inhibitory concentration, Swimming (strain R130 [16]): >50 µg/mL; Minimum inhibitory concentration, Growth (strain R130 [17]): >50 µg/mL; Minimum inhibitory concentration, Swarming (strain R130 [18]): 25 µg/mL (≈ 64.3 µM); Minimum inhibitory concentration, Swimming (strain V21 [19]): 25 µg/mL (≈ 64.3 µM); Minimum inhibitory concentration, Growth (strain V21 [20]): 25 µg/mL (≈ 64.3 µM); Minimum inhibitory concentration, Swarming (strain V21 [21]): 5 µg/mL (≈ 12.9 µM); Minimum inhibitory concentration, Swimming (strain V54 [22]): 5 µg/mL (≈ 12.9 µM); Minimum inhibitory concentration, Growth (strain V54 [23]): >50 µg/mL; Minimum inhibitory concentration, Swarming (strain V54 [24]): 25 µg/mL (≈ 64.3 µM); Minimum inhibitory concentration, Swimming (strain V55 [25]): 5 µg/mL (≈ 12.9 µM); Minimum inhibitory concentration, Growth (strain V55 [26]): >50 µg/mL; Minimum inhibitory concentration, Swarming (strain V55 [27]): 5 µg/mL (≈ 12.9 µM)
CCCCCCC1=CC(=C(Br)Br)OC1=O [Compound 13] | 0 mm | 0 mm | 0 mm | 1 mm | 0 | 0 mm | 0 mm | 0 mm |  |  |  |  |  |  |  |  |  |  |  |  | 
CCCCC1=CC(=C(Br)Br)OC1=O [Compound 8] | 0 mm | 0 mm | 0 mm | 0 mm | 0 | 0 mm | 0 mm | 20 mm |  |  |  |  |  |  |  |  |  |  |  |  | 
CCCCC1=C(Br)C(=CBr)OC1=O [Compound 2] | 0 mm | 0 mm | 0 mm | 2-3 mm | 0 | 0 mm | 2-4 mm | 20 mm | inhibit | no effect | inhibit | do not stimulate | no effect | stimulated | inhibit | inhibit | no effect | no effect | >50 | >50 | Effect on bacterial growth (Pseudomonas aeruginosa [28]): no detectable effect; Minimum inhibitory concentration, Swarming (strain R12 [12]): 5 µg/mL (≈ 16.1 µM); Minimum inhibitory concentration, Swimming (strain R86 [13]): >50 µg/mL; Minimum inhibitory concentration, Growth (strain R86 [14]): >50 µg/mL; Minimum inhibitory concentration, Swarming (strain R86 [15]): 5 µg/mL (≈ 16.1 µM); Minimum inhibitory concentration, Swimming (strain R130 [16]): >50 µg/mL; Minimum inhibitory concentration, Growth (strain R130 [17]): >50 µg/mL; Minimum inhibitory concentration, Swarming (strain R130 [18]): 25 µg/mL (≈ 80.6 µM); Minimum inhibitory concentration, Swimming (strain V21 [19]): 25 µg/mL (≈ 80.6 µM); Minimum inhibitory concentration, Growth (strain V21 [20]): 25 µg/mL (≈ 80.6 µM); Minimum inhibitory concentration, Swarming (strain V21 [21]): 5 µg/mL (≈ 16.1 µM); Minimum inhibitory concentration, Swimming (strain V54 [22]): 5 µg/mL (≈ 16.1 µM); Minimum inhibitory concentration, Growth (strain V54 [23]): >50 µg/mL; Minimum inhibitory concentration, Swarming (strain V54 [24]): 5 µg/mL (≈ 16.1 µM); Minimum inhibitory concentration, Swimming (strain V55 [25]): 5 µg/mL (≈ 16.1 µM); Minimum inhibitory concentration, Growth (strain V55 [26]): >50 µg/mL; Minimum inhibitory concentration, Swarming (strain V55 [27]): 5 µg/mL (≈ 16.1 µM)
C[C@@H]1[C@H](O)[C@@H](C)/C=C/C=C/C=C/C=C/C=C/C=C/C=C/[C@H](O[C@@H]2O[C@H](C)[C@@H](O)[C@H](N)[C@@H]2O)C[C@@H]2O[C@](O)(C[C@@H](O)C[C@@H](O)[C@H](O)CC[C@@H](O)C[C@@H](O)CC(=O)O[C@H]1C)C[C@H](O)[C@H]2C(=O)O [Amphotericin B, reference compound] | 2-4 mm | 5-7 mm | 6-10 mm | 1.14 mm | 2 | 6 mm | 6-8 mm | 7-10 mm |  |  |  |  |  |  |  |  |  |  |  |  | 
